We go through 32 compounds from ChEMBL document CHEMBL3046589, “Synthesis and Fungicidal Activities of (-Methoxybenzyl) isoxazoles” (2000).

Holding throughout (type): functional
The subject of assay [1] is Myzus persicae. The assay can be described thus: Insecticidal activity against Myzus persicae (green peach aphid) nymphs fed with chinese cabbage leaf assessed as mortality at 15.6 ppm applied through spraying measured after 48 hr.
The test system of assay [2] is Myzus persicae. The assay is described as follows: Insecticidal activity against Myzus persicae (green peach aphid) nymphs fed with Chinese cabbage leaf assessed as mortality at 62.5 ppm applied through spraying measured after 48 hr.
Assay [3] deals with Myzus persicae. The assay can be described thus: Insecticidal activity against Myzus persicae (green peach aphid) nymphs fed with Chinese cabbage leaf assessed as mortality at 250 ppm applied through spraying measured after 48 hr.
The subject of assay [4] is Pseudoperonospora cubensis. The assay is described as follows: Curative fungicidal activity against Pseudoperonospora cubensis infected cucumber leaves at 7.8 ppm after by foliar application method.
The test system of assay [5] is Pseudoperonospora cubensis. The assay is described as follows: Curative fungicidal activity against Pseudoperonospora cubensis infected cucumber leaves at 31.3 ppm after by foliar application method.
The test system of assay [6] is Pseudoperonospora cubensis. The assay is described as follows: Preventive fungicidal activity against Pseudoperonospora cubensis infected cucumber leaves at 31.3 ppm after by foliar application method.
Assay [7] concerns Podosphaera fuliginea. The assay can be described thus: Preventive fungicidal activity against Podosphaera fuliginea infected cucumber leaves at 7.8 ppm after by foliar application method.
Assay [8] relates to Pseudoperonospora cubensis. The assay is described as follows: Preventive fungicidal activity against Pseudoperonospora cubensis infected cucumber leaves at 7.8 ppm after by foliar application method.
The subject of assay [9] is Podosphaera fuliginea. The assay is described as follows: Curative fungicidal activity against Podosphaera fuliginea infected cucumber leaves at 31.3 ppm after by foliar application method.
Assay [10] has as its system Podosphaera fuliginea. The assay is described as follows: Curative fungicidal activity against Podosphaera fuliginea infected cucumber leaves at 7.8 ppm after by foliar application method.
The subject of assay [11] is Podosphaera fuliginea. The assay can be described thus: Preventive fungicidal activity against Podosphaera fuliginea infected cucumber leaves at 31.3 ppm after by foliar application method.
The subject of assay [12] is Pseudoperonospora cubensis. The assay can be described thus: Preventive fungicidal activity against Pseudoperonospora cubensis infected cucumber leaves at 500 ppm after by foliar application method.
Assay [13] has as its system Podosphaera fuliginea. The assay is described as follows: Preventive fungicidal activity against Podosphaera fuliginea infected cucumber leaves at 125 ppm after by foliar application method.
For assay [14], the system named is Podosphaera fuliginea. The assay is described as follows: Preventive fungicidal activity against Podosphaera fuliginea infected cucumber leaves at 500 ppm after by foliar application method.
Assay [15] has as its system Pseudoperonospora cubensis. The assay can be described thus: Preventive fungicidal activity against Pseudoperonospora cubensis infected cucumber leaves at 125 ppm after by foliar application method.
Another assay deals with Botrytis cinerea. The assay is described as follows: Preventive fungicidal activity against Botryotinia fuckeliana infected cucumber leaves at 500 ppm after by foliar application method.

`COC(c1cc(C)no1)c1ccccc1/C=N/N=C(\C)c1ccc(Cl)c(Cl)c1` (stereo not drawn): the mortality (as a rule, the share of the test organisms that died) at 15.6 ppm in the assay with Myzus persicae [1] worked out at 0%. Also, the mortality at 62.5 ppm in the assay on Myzus persicae [2] was 3%. Also, the mortality at 250 ppm in the assay with Myzus persicae [3] is 3%. Moreover, the Activity in [4] came to 100%; in [5], 100%; in assay [6], 70%; in the assay with Podosphaera fuliginea [7], 100%; in assay [8] it was 30%; in the assay with Podosphaera fuliginea [9], 70%. For the same compound, the values for the Activity in the assay on Podosphaera fuliginea [10] and in the assay on Podosphaera fuliginea [11] were 30% and 100%, respectively.
Regarding `CO/N=C(\c1ccon1)c1ccccc1COc1cc(C)ccc1C`, the Activity is recorded as 100% in [4]; 100% in assay [5]; 0% in assay [6]; 100% with Podosphaera fuliginea [7]; 0% in assay [8]; 0% in the assay with Podosphaera fuliginea [9]. Besides, the Activity in the assay on Podosphaera fuliginea [10] is 0%; in the assay on Podosphaera fuliginea [11], 100%.
Take `COC(c1cc(C)no1)c1ccccc1/C=N/N=C(\C)c1cccc(Cl)c1` (stereo not drawn): in assay [12], the Activity is 50%.
As to `COC(c1cc(C)no1)c1ccccc1/C=N/N=C(\C)c1ccc(F)cc1` (stereo not drawn), the Activity in assay [12] came out at 50%; in the assay on Podosphaera fuliginea [13], 90%.
In the case of `COC(c1cc(C)no1)c1ccccc1/C=N/N=C(\C)c1ccccc1Br` (stereo not drawn), the values for the Activity (in [12]; in the assay on Podosphaera fuliginea [14]) were 50% and 90%, respectively.
Consider `COC(c1cc(C)no1)c1ccccc1/C=N/N=C(\C)c1ccc(Br)cc1` (stereo not drawn), for which the Activity in assay [4] is 100%; in assay [5] it was 100%; in [6], 70%; in the assay on Podosphaera fuliginea [7], 100%; in assay [8] it was 50%; in the assay with Podosphaera fuliginea [9] it was 70%. The Activity stood at 50% in the assay on Podosphaera fuliginea [10] and 100% in the assay with Podosphaera fuliginea [11].
Regarding `COC(c1cc(C)no1)c1ccccc1/C=N/N=C(\C)c1ccc(C)cc1` (stereo not drawn), the Activity in assay [12] is on record as 50%; in the assay with Podosphaera fuliginea [11], 90%.
As for `COc1ccc(/C(C)=N/N=C/c2ccccc2C(OC)c2cc(C)no2)cc1` (stereo not drawn), the Activity in assay [15] was 50%; in the assay with Podosphaera fuliginea [13], 90%.
As for `COC(c1cc(C)no1)c1ccccc1/C=N/N=C(\C)c1ccc(C(F)(F)F)cc1` (stereo not drawn), the mortality at 15.6 ppm with Myzus persicae [1] came out at 0%. For the same compound, the mortality at 62.5 ppm in the assay with Myzus persicae [2] turned out to be 1%. The mortality at 250 ppm with Myzus persicae [3] was found to be 2%. Moreover, the Activity in [6] was 50%; with Podosphaera fuliginea [7], 90%.
For the compound `COC(c1cc(C)no1)c1ccccc1/C=N/N=C(\C)c1ccc(OC(F)(F)F)cc1` (stereo not drawn), the Activity is reported as 100% in assay [4]; 100% in [5]; 60% in [6]; 100% in the assay on Podosphaera fuliginea [7]; 50% in assay [8]; 45% in the assay with Podosphaera fuliginea [9]. In addition, the Activity with Podosphaera fuliginea [10] is given as 0%; in the assay on Podosphaera fuliginea [11], 100%.
For the compound `COC(c1cc(C)no1)c1ccccc1/C=N/N=C(\C)c1ccc(Cl)cc1Cl` (stereo not drawn), the Activity in assay [12] amounted to 50%; in the assay on Podosphaera fuliginea [11], 90%.
For `COC(c1ccon1)c1ccccc1COc1cc(C)ccc1C` (stereo not drawn), the Activity in assay [12] came to 50%; in the assay on Botrytis cinerea, 50%; in the assay with Podosphaera fuliginea [11], 90%.
With `COC(c1cc(C)on1)c1ccccc1COc1cc(C)ccc1C` (stereo not drawn), the Activity in assay [12] was found to be 50%; in the assay on Botrytis cinerea, 50%; in the assay with Podosphaera fuliginea [11], 90%.
As to `COC(c1cc(C)no1)c1ccccc1COc1cc(C)ccc1C` (stereo not drawn), the Activity in assay [12] worked out at 50%; with Podosphaera fuliginea [7] it was 90%; in the assay on Botrytis cinerea, 50%.
As for `COC(c1ccccc1COc1cc(C)ccc1C)c1c(C)noc1C` (stereo not drawn), the results for the Activity (in [12]; with Botrytis cinerea; with Podosphaera fuliginea [14]) were 50%, 50% and 90%, respectively.
Consider `COC(C1=NOCC1)c1ccccc1COc1cc(C)ccc1C` (stereo not drawn), for which the Activity was found to be 50% in assay [12], 50% in the assay on Botrytis cinerea and 90% in the assay with Podosphaera fuliginea [13].
With `COC(c1ccccc1COc1cc(C)ccc1C)C1CC(C)=NO1` (stereo not drawn), the Activity in [12] came out at 50%; with Botrytis cinerea, 50%; in the assay with Podosphaera fuliginea [14] it was 90%.
Consider `COC(c1cc(C)no1)c1ccccc1Oc1ccccc1` (stereo not drawn), for which the Activity (in assay [12]; in the assay with Botrytis cinerea) was 50% each time.
On to `COC(c1cc(C)no1)c1ccccc1Oc1ncc(C(F)(F)F)cc1Cl` (stereo not drawn), for which the Activity (in assay [12]; in the assay on Botrytis cinerea) was 50% throughout.
In the case of `COC(c1cc(C)no1)c1ccccc1Oc1cc(Oc2ccccc2C#N)ncn1` (stereo not drawn), the Activity is 50% in assay [12], 50% in the assay with Botrytis cinerea and 90% in the assay on Podosphaera fuliginea [14].
As for `COC(c1cc(C)no1)c1ccccc1COc1ccccc1C` (stereo not drawn), the Activity is 50% in assay [12], 50% in the assay with Botrytis cinerea and 90% with Podosphaera fuliginea [11].
With `COC(c1cc(C)no1)c1ccccc1/C=C/c1ccc(Cl)cc1` (stereo not drawn), the Activity in [12] stood at 50%; in the assay on Botrytis cinerea, 50%; in the assay with Podosphaera fuliginea [14], 90%.
With `COC(c1cc(C)no1)c1ccccc1COc1ccc(C(F)(F)F)cn1` (stereo not drawn), the Activity is on record as 50% in assay [12], 50% with Botrytis cinerea and 90% with Podosphaera fuliginea [13].
Consider `COC(c1cc(C)no1)c1ccccc1COc1ncc(C(F)(F)F)cc1Cl` (stereo not drawn), for which the Activity is recorded as 50% in assay [12], 50% with Botrytis cinerea and 90% in the assay on Podosphaera fuliginea [11].
`COC(c1cc(C)no1)c1ccccc1CO/N=C(\C)c1ccc(Cl)cc1` (stereo not drawn): the Activity was found to be 50% in assay [12], 50% with Botrytis cinerea and 90% with Podosphaera fuliginea [11].
Take `COC(c1cc(C)no1)c1ccccc1CO/N=C(\SC)c1ccc(Cl)cc1` (stereo not drawn): the Activity in [12] is on record as 50%; with Botrytis cinerea, 50%; with Podosphaera fuliginea [13], 90%.
Take `COC(c1cc(C)no1)c1ccccc1/C=N/OC(C)c1ccc(Cl)cc1` (stereo not drawn): the Activity in assay [12] stood at 50%; in the assay with Podosphaera fuliginea [7] it was 90%; in the assay on Botrytis cinerea, 50%.
Regarding `COC(c1cc(C)no1)c1ccccc1/C=N/N=C(\C)c1ccc(Cl)cc1` (stereo not drawn), in the assay on Myzus persicae [1], the mortality at 15.6 ppm is 0%. In addition, the mortality at 62.5 ppm in the assay on Myzus persicae [2] worked out at 1%. Besides, the mortality at 250 ppm in the assay on Myzus persicae [3] came to 2%. Further, the Activity is reported as 50% in [6], 90% in the assay with Podosphaera fuliginea [7] and 50% in the assay with Botrytis cinerea.
In the case of `COC(c1cc(C)no1)c1ccccc1/C=N/N=C(\C)c1ccccc1` (stereo not drawn), the values for the Activity (in [12]; in the assay with Podosphaera fuliginea [14]) were 50% and 90%, respectively.
On to `COC(c1cc(C)no1)c1ccccc1/C=N/N=C(\C)c1ccccc1Cl` (stereo not drawn), for which the figures for the Activity (in [12]; with Podosphaera fuliginea [14]) were 50% and 90%, respectively.
As for `CC(C)C(C(=O)OC(C#N)c1cccc(Oc2ccccc2)c1)c1ccc(OC(F)F)cc1` (stereo not drawn) [FLUCYTHRINATE], in the assay with Myzus persicae [1], the mortality at 15.6 ppm stood at 3%. The mortality at 62.5 ppm in the assay with Myzus persicae [2] worked out at 3%. Also, the mortality at 250 ppm in the assay on Myzus persicae [3] worked out at 3%.
As for `CNC(=O)/C(=N/OC)c1ccccc1Oc1ccccc1` [METOMINOSTROBIN], the Activity in assay [4] is 70%; in assay [5], 97%; in [6] it was 60%; in the assay with Podosphaera fuliginea [7], 70%; in [8], 40%; with Podosphaera fuliginea [9] it was 40%. Besides, the Activity worked out at 0% in the assay with Podosphaera fuliginea [10] and 100% with Podosphaera fuliginea [11].
